“Also recorded” adds a separate entry of the source.
Experiments:
[1] = soxhlet extraction of dry leaves with n-hexane or methanol; cited from earlier work
[2] = tested on: sheep model for pulmonary fibrosis, bleomycin-injured lung segments; experiment: Example 2: segmental lung compliance (Cseg) in bleomycin-injured sheep lung segments; assay type: in vivo
Protocol: Segmental compliance (Cseg) was assessed using pressure responses to flow in the different segments as indicated FIG. 2 in awake, consciously breathing sheep using a wedged-bronchoscope technique. Briefly, a custom-built Segmental Lung Airway Monitoring (SLAM) System was used to monitor the segmental flow and pressure. After first determining the bronchoscope resistance to the set flow, the bronchoscope was wedged into an airway in the lung segment of interest and a constant flow (6 mL/s) of 5% C02 in air was passed through the working channel of the bronchoscope.
Segmental lung compliance was calculated. Briefly, after the bronchoscope was wedged into the specific region of the lung, pressure was allowed to reach a steady state. After approximately 5 s at steady state, airflow was interrupted turning off the airflow supply. Segmental compliance was then calculated from the pressure-flow decay curve generated from this procedure. The process was repeated 3 times for each segment and expressed as an average value for Cseg. The pressure was recorded by a PM-1000 Transducer Amplifiers (CWE Inc., Admore, USA) and flow was recorded using a mass flow meter (824-S, Sierra Instruments, Monterey, USA). Data were acquired with Data Acquisition Card (PCI-6233; National Instruments Corp., Austin, USA) and was analysed with the SLAM system (Latitude E6520, Dell Computer Corporation, Texas USA and LabVIEW, National Instruments Corp., Austin, USA). All resistance measurements were corrected for the resistance of flow through the working channel of the bronchoscope.
(§1) In this study, a total of 10 sheep were used. Fibrosis in two lung segments of each sheep in a similar manner as performed in Example 1 herein. Using this procedure (as detailed further below) the fibrosis was confined to small, isolated regions in the lungs leaving the remaining 90-95% of the healthy unaffected lungs to undertake normal respiratory function.
(§2) All sheep (n=10) in the study were challenged with 2 single doses of bleomycin (3 units) per lung segment, a fortnight apart and the animals were kept for a little over 5 weeks after the final bleomycin dose. Bleomycin is a well-known agent for inducing fibrosis in the lungs. The administration procedure involves inserting a bronchoscope into lung segments in the right and left lung, and then slowly infusing the bleomycin into two segments as shown in FIG. 2 via the bronchoscope biopsy port. […]
Lung function was assessed in all test lung-segments (left and right caudal lobes, and medial lobe in each sheep). The functional capacity of the lung segments was measured through the endoscope using the procedure outlined in Example 1 herein. The lung function parameter assessed in this study is referred to as compliance in the lung segment (abbreviated to Cseg). […]

[3] = tested on: sheep; experiment: Example 2: animal health and safety of pinocembrin administration; assay type: in vivo
Protocol: In the study detailed in Example 1 herein, the dose-rate of pinocembrin was 7 mg pinocembrin per sheep, per week.
For control purposes the lung segment in the opposite lung was used as a bleomycin-positive, without drug, control, as indicated in FIG. 1. The bioactive molecules in vehicle, were delivered as 5 ml infusions through the biopsy port of the bronchoscope. Note that to nullify any small differences (e.g. physiological or anatomical etc.) between the left and right lungs, the infusions of pinocembrin were randomized between the left and right caudal lung segments. Half the animals (5 sheep) received pinocembrin to the right caudal lung segments, while the other 5 sheep received pinocembrin to the left caudal lung segments. The right medial lung segment was left untreated and used for healthy lung control tissue which was sampled at autopsy (FIG. 2).
The sheep were bled at the times indicated in FIG. 1 by sampling 10 ml of blood from the jugular vein into a tube containing heparin. The blood was processed for blood cell count analyses.
Health checks were routinely performed throughout the treatment periods and throughout the trial until euthanasia.

[4] = tested on: sheep model for pulmonary fibrosis, bleomycin-injured lung segments; experiment: Example 2: hydroxyproline assay for collagen content; assay type: in vivo; details: increase induced by bleomycin
Excerpt: as §1, §2
The hydroxyproline assay was used to extrapolate the collagen content and concentration of each segment. Briefly, frozen lung tissues from each segment were lyophilized to dry weight, hydrolyzed in 6M HCl, and assessed for hydroxyproline content by measuring the absorbance of reconstituted samples (in 0.1M HCl) at 558 nm using a Beckman DU-64 spectrophotometer (Beckman Coulter Inc, Brea, Calif.). Hydroxyproline content was determined from a standard curve of trans-L-hydroxy-L-proline (Sigma-Aldrich).). […]

[5] = pinocembrin treatment period, 10 sheep
[6] = throughout the pinocembrin treatment period, 10 sheep

O=C1CC(c2ccccc2)Oc2cc(O)cc(O)c21 (stereo not drawn) [pinocembrin, 5,7-Dihydroxy-2-Phenyl-2,3-Dihydro-4H-Chromen-4-One]
temperature survived for extended periods [1]: up to 68 °C
lung function in lung segments injured by bleomycin (summary) ([2]; 4 weekly doses of 7 mg, n=10 sheep): significantly improved
sheep with improved function (Cseg) in bleomycin-damaged, pinocembrin-treated lung segments ([2]; individual sheep data, 4 weekly infusions of 7 mg, 10 sheep): eight out of ten
percentage change in compliance from baseline ([2]; week 0 to week 11, after four weekly administrations, n=10 sheep): significantly improved
mean segmental compliance (Cseg) compared with untreated healthy control lung segments ([2]; week 11, 7 mg in 10% DMSO infused into bleomycin-injured caudal segment, 4 weekly doses, n=10 sheep): not significantly different from the untreated healthy control lung segments
untoward health effects (clinical assessment criteria) ([3]; all ten sheep undergoing the trial): no untoward health effects
differential counts of blood leukocytes ([3]; both sampling time points, 10 sheep): within normal ranges
additional pathology or lung damage in pinocembrin exposed segments ([3]; lung segment exposed to pinocembrin, post-mortem): no obvious signs of additional pathology or lung damage
adverse health events [3, 5]: no otherwise adverse health events
weight gain [3, 5]: expected normal range
core temperature readings [3, 6]: within the normal range
heart, and respiratory rates [3, 6]: within normal ranges
animal health during treatment period ([3]; week 8 to week 12, 7 mg per sheep per week into one lung segment, 10 sheep): remained healthy
collagen content (hydroxyproline assay) ([4]; 4 weekly treatments of 7 mg, 10 sheep (FIG. 16A)): did not reduce; also recorded: not associated with a significant decrease; also recorded: did not address the increase
collagen content (hydroxyproline assay) ([4]; all 13 sheep of Examples 1 and 2 (FIG. 16B)): does not reduce

— patent US20230172901A1, “COMPOSITIONS AND METHODS FOR THE PROPHYLAXIS AND TREATMENT OF FIBROTIC AND INFLAMMATORY CONDITIONS” (GRETALS AUSTRALIA PTY LTD, priority 2020, published 2023)
